These results are taken from PMC9298352, “Design, Synthesis and Structural Analysis of Glucocerebrosidase Imaging Agents” (Chemistry (Weinheim an Der Bergstrasse, Germany), 2021).

The target in experiment [1] is T1, recombinant human GAA (rhGAA, Myozyme) (Homo sapiens, UniProt P10253).
T1 construct: purchased Sanofi Genzyme (Cambridge, MA, USA)
The experiment is described as follows: In vitro apparent IC50, fluorogenic substrate assay on rhGAA. It is filed as biochemical. On the procedure:
(§1) All assays were performed in duplicate sets, each with 3 technical replicates at each inhibitor concentration. DMSO concentration was kept at 0.5 %–1 % (v/v) in all assays during incubation with compounds. In vitro apparent IC50 values were calculated by fitting data with [inhibitor] vs. response‐various slope (four parameters) function using Graphpad Prism 7.0 software. Average values and standard deviations were calculated from the two sets.

Experiment [2] addresses T2, endogenous GBA in HEK293T cells (Homo sapiens, UniProt P04062).
T2 construct: endogenous in cells; host or cells: HEK293T
T2 sequence (P04062 40-536): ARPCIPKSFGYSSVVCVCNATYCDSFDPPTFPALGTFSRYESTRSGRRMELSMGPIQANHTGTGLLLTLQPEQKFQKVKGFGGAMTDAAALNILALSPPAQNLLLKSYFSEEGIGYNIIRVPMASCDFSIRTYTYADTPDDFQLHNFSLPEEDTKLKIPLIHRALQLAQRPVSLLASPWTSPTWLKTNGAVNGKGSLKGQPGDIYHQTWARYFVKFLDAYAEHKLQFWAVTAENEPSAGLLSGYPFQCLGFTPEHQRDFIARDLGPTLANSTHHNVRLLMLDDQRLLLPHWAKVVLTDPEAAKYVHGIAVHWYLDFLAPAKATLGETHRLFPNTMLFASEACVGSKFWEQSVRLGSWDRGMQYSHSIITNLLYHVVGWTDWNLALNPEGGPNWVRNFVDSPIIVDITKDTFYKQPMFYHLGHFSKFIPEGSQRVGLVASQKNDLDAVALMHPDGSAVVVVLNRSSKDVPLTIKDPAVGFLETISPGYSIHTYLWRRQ
The experiment is described as follows: In situ labeling of GBA in living HEK293T cells (gel-based ABPP). Type of experiment: cell-based. Conditions: 1–1000 nM, 24 h, 37 °C. On the procedure:
HEK293T cells containing endogenous GBA and overexpressed GBA2 were treated with the ABPs at different concentrations (1–1000 nM) for 24 hr. Cells were then washed, lysed and the fluorescence was visualized by gel‐based ABPP (Figure 8).
CBB, Coomassie Brilliant Blue staining (bottom panel).
Labelling of HEK293T cells, containing endogenous GBA and overexpressed GBA2, with ABPs 6, 8 and 9 was conducted based on previously described methods[69] as outlined in the Supporting Information (page 7).
Cy5 tetrazine 20 (2.83 mg, 4.3 µmol) was added to a solution of norbornene 19 (0.94 mg, 2.38 µmol) in MeOH (4 mL). After stirring overnight at rt, the reaction mixture was concentrated in vacuo and purified by HPLC under neutral conditions (A: 50 mM NH4HCO3 in H2O; B: MeCN; 49% → 52%, A in […]
Biochemical Methods: General Experimental Details
Recombinant human GBA (rhGBA, imiglucerase, Cerezyme®) and GAA (rhGAA, alglucosidase alfa, Myozyme) were obtained from Sanofi Genzyme (Cambridge, MA, USA). HEK293T (CRL-3216) cell lines were purchased from ATCC (Manassas, VA, USA). Cell lines were […]
(1 picture or pasted object on this page, not shown here)

Experiment [3] addresses T3, recombinant human GBA (rhGBA, Imiglucerase) (Homo sapiens, UniProt P04062, R534H).
T3 construct: purchased Sanofi Genzyme (Cambridge, MA, USA)
T3 sequence (P04062 40-536 R534H): T2 sequence (P04062 40-536) with R495H
As to the kind of experiment: In vitro apparent IC50, fluorogenic substrate assay on rhGBA. Type of experiment: biochemical. On the procedure:
as §1

Experiment [4] concerns the target T4, rhGBA (Homo sapiens, UniProt P04062).
T4 construct: made in house; host or cells: insect-baculovirus expression vector system (BEVS)
T4 sequence (P04062 40-536): T2 sequence (P04062 40-536)
As to the kind of experiment: Titration of ABP 6 and ABP 9 with constant rhGBA (gel-based labelling). It is filed as biochemical. Particulars: constant rhGBA 200 nM, ABP 150–0.001 nM, 37 °C, 30 mins. On the procedure:
(§2) Maximum‐likelihood/σA weighted (2Fo–Fc) electron density map contoured to 1.0 σ (a=1.31 e^−/Å^3). […] Fluorescently labelled rhGBA visualized by Cy5 fluorescent readout. D=denatured protein sample.
The reactions were incubated at 37 °C for 30 mins and denatured with Laemmli (x3) sample buffer at 95 °C for 5 minutes. The samples were resolved by electrophoresis in 10 % SDS‐PAGE gels, running at 200 V for ∼50 minutes. Wet slab gels were scanned on fluorescence using an Amersham Typhoon 5 Imager (GE Healthcare) with λEX 635 nm; λEM >665 nm.

The target of experiment [5] is T4, rhGBA. As to the kind of experiment: rhGBA titration with constant ABP 6 and ABP 9 (gel-based labelling). It is filed as biochemical. Conditions: ABP 150 nM, rhGBA 500–0.01 nM, 37 °C, 30 mins. The method, then:
as §2
rhGBA produced in BEVS[58] was prepared at 500, 250, 100, 50, 10, 1, 0.1 and 0.01 nM in 150 mM McIlvaine buffer pH 5.2 (supplemented with 0.1 % (v/v) Triton X‐100 and 0.2 % (w/v) sodium taurocholate). […] The samples were denatured with Laemmli (x3) sample buffer by heating at 95 °C for 5 minutes and resolved by electrophoresis in 10 % SDS‐PAGE gels, running at 200 V for ∼50 minutes. Wet slab gels were scanned on fluorescence using an Amersham Typhoon 5 Imager (GE Healthcare) with λEX 635 nm; λEM >665 nm.

Changes are numbered by the printed parent chain. Read-outs that look alike come from different tables or passages of the source. Some results are limits rather than exact numbers.

With `CCCCCCCCN1[C@@H]2[C@H](Cn3cc(CNC(=O)CCCCC[N+]4=C(/C=C/C=C/C=C5/N(C)c6ccccc6C5(C)C)C(C)(C)c5ccccc54)nn3)[C@@H](O)[C@H](O)[C@@H](O)[C@@H]21` (stereo partly drawn) [ABP 6], the IC50 in experiment [1] is above 100 µM; in experiment [3] (3 hr pre-incubation, read-out: apparent IC50 value, GBA) it was 53 nM; in experiment [3] (apparent IC50, 3 h pre-incubation, 4-methylumbelliferyl-β-glucoside substrate, ± SD from technical duplicates, read-out: In vitro rhGBA IC50), 53.1 ± 2.65 nM. The “ABP concentration at which in situ labeling of GBA is observed” value in experiment [2] is listed as 10 nM. Further, the “gel-detection limit (ABP concentration)” value at rhGBA [4] was found to be 1 nM. Also, the “lowest rhGBA concentration labelled” value on rhGBA [5] is listed as 1 nM.

For orientation: IC50 means the point on the concentration scale where inhibition reaches its midpoint.
